Measured values: US20200179428A1, “CYCLIC PHOSPHATE SUBSTITUTED NUCLEOSIDE DERIVATIVES AND METHODS OF USE THEREOF FOR THE TREATMENT OF VIRAL DISEASES” (priority 2016, published 2020)
Where two headings read alike, the source gives them in different places.

How the values were obtained:
replicon cells (1b-Con1) = assay: Replicon activity assay (replicon RNA level by real-time RT-PCR, Taqman); format: cell-based; details: HCV replicon genotype 1b, read-out: EC50 (1b) Range
Protocol: (§1) To measure cell-based anti-HCV activity of the compounds of the present invention, replicon cells (1b-Con1) are seeded at 5000 cells/well in 96-well plates one day prior to treatment with a compound of the invention. Various concentrations of a test compound of the invention in DMSO are then added to the replicon cells, with the final concentration of DMSO at 0.5% and fetal bovine serum at 10% in the assay media. Cells are harvested three days post-dosing, and the replicon RNA level is determined using real-time RT-PCR (Taqman assay) with GAPDH RNA as endogenous control. EC50 values are calculated from experiments with 10 serial twofold dilutions of the inhibitor in triplicate. To measure cytotoxicity in replicon cells of an inhibitor, an MTS assay is performed according to the manufacturer's protocol for CellTiter 96 Aqueous One Solution Cell Proliferation Assay (Promega, Cat # G3580) three days post dosing on cells treated identically as in replicon activity assays. […] Cytotoxicity in other types of cells may be measured using the same MTS protocol.

[1] = Cytotoxicity MTS assay (CellTiter 96 Aqueous One Solution) in replicon cells; format: cell-based; details: EDU, read-out: CC50 (EDU) Range; for CC50 at 3 days: HCV replicon cells (1b-Con1)
Protocol: as §1

Row | Structure (SMILES) | EC50 (replicon cells (1b-Con1); Hepatitis C virus) | CC50 at 3 days [1] | EC50 (replicon cells (1b-Con1)) | CC50 [1]
1 | CC(C)OC(=O)C(C)(C)CO[P@@]1(=O)OC[C@H]2O[C@@H](n3ccc(=O)[nH]c3=O)[C@](C)(N)[C@@H]2O1 [Compound 15A] | > 10 µM | > 50 µM |  | 
2 | C#C[C@@]1(O)[C@@H]2OP(=O)(OCC[C@@H](C)C(=O)OC(C)C)OC[C@H]2O[C@H]1n1ccc(=O)[nH]c1=O (single isomer, unassigned) [Compound 7A1] | 0.25 to 1 µM | > 50 µM |  | 
3 | CC(C)OC(=O)C(CCO[P@]1(=O)OC[C@H]2O[C@@H](n3ccc(=O)[nH]c3=O)[C@](C)(N)[C@@H]2O1)C(C)C (stereo partly drawn) [Compound 24B] | > 10 µM | > 50 µM |  | 
4 | C#C[C@]1(C)[C@@H]2O[P@](=O)(OC[C@@H](F)CC(=O)OC(C)C)OC[C@H]2O[C@H]1n1ccc(=O)[nH]c1=O [Compound 64B] | 0.25 to 1 µM | > 50 µM |  | 
5 | C#C[C@]1(C)[C@@H]2O[P@@](=O)(OCC(C)(C)CC(=O)OC(C)C)OC[C@H]2O[C@H]1n1ccc(=O)[nH]c1=O [Compound 18A] | > 10 µM | > 50 µM |  | 
6 | CC(C)OC(=O)C(C)(C)CCO[P@]1(=O)OC[C@H]2O[C@@H](n3ccc(=O)[nH]c3=O)[C@](C)(N)[C@@H]2O1 [Compound 19B] | > 10 µM | > 50 µM |  | 
7 | CCCCCOC(=O)C(C)CCO[P@@]1(=O)OC[C@H]2O[C@@H](n3ccc(=O)[nH]c3=O)[C@](C)(N)[C@@H]2O1 (stereo partly drawn) [Compound 79A] | 1 to 10 µM | > 50 µM |  | 
8 | C[C@@]1(N)[C@@H]2O[P@@](=O)(OCCC3(C(=O)OC4CCCC4)CC3)OC[C@H]2O[C@H]1n1ccc(=O)[nH]c1=O [Compound 26A] | > 10 µM | > 50 µM |  | 
9 | CO[C@H](CCO[P@@]1(=O)OC[C@H]2O[C@@H](n3ccc(=O)[nH]c3=O)[C@](C)(N)[C@@H]2O1)C(=O)OC(C)C [Compound 45A] | 1 to 10 µM | > 50 µM |  | 
10 | CC(C)OC(=O)C(C)CCOP1(=O)OC[C@H]2O[C@@H](n3cnc4c(N)ncnc43)[C@](C)(Cl)[C@@H]2O1 (single isomer, unassigned) [Compound 35A1] | ≤ 0.25 µM | > 50 µM |  | 
11 | CC(C)OC(=O)C[C@@H](F)CO[P@@]1(=O)OC[C@H]2O[C@@H](n3ccc(=O)[nH]c3=O)[C@](C)(N)[C@@H]2O1 [Compound 67A] | > 10 µM | > 50 µM |  | 
12 | CC(C)OC(=O)C1(CCO[P@@]2(=O)OC[C@H]3O[C@@H](n4ccc(=O)[nH]c4=O)[C@](C)(N)[C@@H]3O2)CC1 [Compound 27A] | > 10 µM | > 50 µM |  | 
13 | CC(=O)O[C@H](C(=O)OC(C)C)[C@@H](COP1(=O)OC[C@H]2O[C@@H](n3ccc(=O)[nH]c3=O)[C@](C)(N)[C@@H]2O1)OC(C)=O (stereo partly drawn) [Compound 53B] | > 10 µM | > 50 µM |  | 
14 | CC(C)OC(=O)[C@@H](C)CCO[P@@]1(=O)OC[C@H]2O[C@@H](n3cnc4c(N)ncnc43)[C@](C)(N)[C@@H]2O1 [Compound 73A] | > 10 µM | > 50 µM |  | 
15 | C#C[C@]1(C)[C@@H]2O[P@@](=O)(OC[C@H](NC(=O)OC)C(=O)OC(C)C)OC[C@H]2O[C@H]1n1ccc(=O)[nH]c1=O [Compound 40A] | > 10 µM | > 50 µM |  | 
16 | CCC(CCO[P@@]1(=O)OC[C@H]2O[C@@H](n3ccc(=O)[nH]c3=O)[C@](C)(N)[C@@H]2O1)C(=O)OC(C)C (stereo partly drawn) [Compound 23A] | > 10 µM | > 50 µM |  | 
17 | CC(C)OC(=O)[C@H](C)CCOP1(=O)OC[C@@]2(F)O[C@@H](n3ccc(=O)[nH]c3=O)[C@](C)(O)[C@@H]2O1 (stereo partly drawn) [Compound 86A] | 1 to 10 µM | > 50 µM |  | 
18 | C#C[C@]1(C)[C@@H]2O[P@@](=O)(OCC[C@@H](OC(C)=O)C(=O)OC(C)C)OC[C@H]2O[C@H]1n1ccc(=O)[nH]c1=O [Compound 50A] | > 10 µM | > 50 µM |  | 
19 | C#C[C@@]1(O)[C@@H]2OP(=O)(OCC[C@H](C)C(=O)OC3CCCC3)OC[C@H]2O[C@H]1n1ccc(=O)[nH]c1=O (single isomer, unassigned) [Compound 8A1] | 0.25 to 1 µM | > 50 µM |  | 
20 | C#C[C@@]1(OC(=O)CCC)[C@@H]2O[P@@](=O)(OCC[C@H](C)C(=O)OC(C)C)OC[C@H]2O[C@H]1n1ccc(=O)[nH]c1=O [Compound 85A2] | ≤ 0.25 µM | > 50 µM |  | 
21 | COC(=O)N[C@H](CO[P@]1(=O)OC[C@H]2O[C@@H](n3ccc(=O)[nH]c3=O)[C@](C)(C#N)[C@@H]2O1)C(=O)OC(C)C [Compound 41B] | > 10 µM | > 50 µM |  | 
22 | CC(C)OC(=O)C(CCOP1(=O)OC[C@H]2O[C@@H](n3ccc(=O)[nH]c3=O)[C@](C)(Cl)[C@@H]2O1)C(=O)OC(C)C (stereo partly drawn) [Compound 38A] | ≤ 0.25 µM | > 50 µM |  | 
23 | CC(C)OC(=O)[C@@H](C)CCO[P@@]1(=O)OC[C@H]2O[C@@H](n3cnc4c(N)ncnc43)[C@](C)(C#N)[C@@H]2O1 [Compound 71A] | > 10 µM | > 50 µM |  | 

Row | Structure (SMILES) | EC50 (replicon cells (1b-Con1); Hepatitis C virus) | CC50 at 3 days [1] | EC50 (replicon cells (1b-Con1)) | CC50 [1]
24 | C#C[C@]1(C)[C@@H]2O[P@@](=O)(OCCC(C(=O)OC(C)C)C(C)C)OC[C@H]2O[C@H]1n1ccc(=O)[nH]c1=O (stereo partly drawn) [Compound 32A] | > 10 µM | > 50 µM |  | 
25 | CO[C@H](CO[P@@]1(=O)OC[C@H]2O[C@@H](n3ccc(=O)[nH]c3=O)[C@](C)(N)[C@@H]2O1)CC(=O)OC(C)C [Compound 61A] | > 10 µM | > 50 µM |  | 
26 | C#C[C@]1(C)[C@@H]2O[P@](=O)(OCCC(C)C(=O)OC3CCCCC3)OC[C@H]2O[C@H]1n1ccc(=O)[nH]c1=O (stereo partly drawn) [Compound 77B] | ≤ 0.25 µM | > 50 µM |  | 
27 | C#C[C@]1(C)[C@@H]2O[P@@](=O)(OCC(C)CCC(=O)OC(C)C)OC[C@H]2O[C@H]1n1ccc(=O)[nH]c1=O (stereo partly drawn) [Compound 22A] | > 10 µM | > 50 µM |  | 
28 | CO[C@H](CO[P@@]1(=O)OC[C@H]2O[C@@H](n3ccc(=O)[nH]c3=O)[C@](C)(N)[C@@H]2O1)[C@@H](OC)C(=O)OC(C)C [Compound 48A] | > 10 µM | > 50 µM |  | 
29 | CO[C@@H](CO[P@]1(=O)OC[C@H]2O[C@@H](n3ccc(=O)[nH]c3=O)[C@](C)(N)[C@@H]2O1)CC(=O)OC(C)C [Compound 63B] | > 10 µM | > 50 µM |  | 
30 | C#C[C@]1(C)[C@@H]2O[P@@](=O)(OCCOCC(=O)OC(C)C)OC[C@H]2O[C@H]1n1ccc(=O)[nH]c1=O [Compound 68A] | > 10 µM | > 50 µM |  | 
31 | C#C[C@]1(C)[C@@H]2OP(=O)(OCC(C)CC(=O)OC(C)C)OC[C@H]2O[C@H]1n1ccc(=O)[nH]c1=O (single isomer, unassigned) [Compound 6A] |  | > 50 µM | 1 to 10 µM | 
32 | CC(C)OC(=O)C(C)CCOP1(=O)OC[C@H]2O[C@@H](n3cnc4c(N)ncnc43)[C@](C)(Cl)[C@@H]2O1 (stereo partly drawn) [Compound 35A] | ≤ 0.25 µM | > 50 µM |  | 
33 | CC(C)OC(=O)[C@@H](C)CCOP1(=O)OC[C@H]2O[C@@H](n3cnc4c(N)ncnc43)[C@](C)(Cl)[C@@H]2O1 (single isomer, unassigned) [Compound 35A2] | ≤ 0.25 µM | > 50 µM |  | 
34 | C[C@@]1(N)[C@@H]2OP(=O)(OCCC3(C(=O)OC4CCCC4)CCC3)OC[C@H]2O[C@H]1n1ccc(=O)[nH]c1=O (stereo partly drawn) [Compound 29A] | > 10 µM | > 50 µM |  | 
35 | C#C[C@]1(C)[C@@H]2O[P@](=O)(OCCC(C)(C)C(=O)OC(C)C)OC[C@H]2O[C@H]1n1ccc(=O)[nH]c1=O [Compound 20B] | > 10 µM | > 50 µM |  | 
36 | C#C[C@@]1(O)[C@@H]2OP(=O)(OCCC(C)C(=O)OC(C)C)OC[C@H]2O[C@H]1n1ccc(=O)[nH]c1=O (stereo partly drawn) [Compound 7A] | 0.25 to 1 µM |  |  | > 50 µM
37 | C#C[C@]1(C)[C@@H]2O[P@](=O)(OCC(C)CCC(=O)OC(C)C)OC[C@H]2O[C@H]1n1ccc(=O)[nH]c1=O (stereo partly drawn) [Compound 22B] | > 10 µM | > 50 µM |  | 
38 | CC(C)OC(=O)C[C@H](F)CO[P@@]1(=O)OC[C@H]2O[C@@H](n3ccc(=O)[nH]c3=O)[C@](C)(N)[C@@H]2O1 [Compound 65A] | > 10 µM | > 50 µM |  | 
39 | C[C@@]1(N)[C@@H]2O[P@](=O)(OCCC3(C(=O)OC4CCCC4)CC3)OC[C@H]2O[C@H]1n1ccc(=O)[nH]c1=O [Compound 26B] | > 10 µM | > 50 µM |  | 
40 | C#C[C@@]1(O)[C@@H]2OP(=O)(OCCC(C)C(=O)OC3CCCC3)OC[C@H]2O[C@H]1n1ccc(=O)[nH]c1=O (single isomer, unassigned) [Compound 8A] | 0.25 to 1 µM | > 50 µM |  | 
41 | C#C[C@]1(C)[C@@H]2O[P@](=O)(OCC[C@@H](OC(C)=O)C(=O)OC(C)C)OC[C@H]2O[C@H]1n1ccc(=O)[nH]c1=O [Compound 50B] | 0.25 to 1 µM | > 50 µM |  | 
42 | CC(C)OC(=O)C(C)(C)CCO[P@@]1(=O)OC[C@H]2O[C@@H](n3ccc(=O)[nH]c3=O)[C@](C)(N)[C@@H]2O1 [Compound 19A] | > 10 µM | > 50 µM |  | 
43 | C#C[C@]1(C)[C@@H]2O[P@](=O)(OCC[C@@H](OC)C(=O)OC(C)C)OC[C@H]2O[C@H]1n1ccc(=O)[nH]c1=O [Compound 57B] | 1 to 10 µM | > 50 µM |  | 
44 | C[C@@]1(N)[C@@H]2O[P@](=O)(OCCC3CCOC3=O)OC[C@H]2O[C@H]1n1ccc(=O)[nH]c1=O (stereo partly drawn) [Compound 46B] | > 10 µM | > 50 µM |  | 
45 | CC(C)OC(=O)[C@@H](C)CCO[P@]1(=O)OC[C@H]2O[C@@H](n3cnc4c(N)ncnc43)[C@](C)(C#N)[C@@H]2O1 [Compound 71B] | 1 to 10 µM | > 50 µM |  | 
